Measured values published in patent US9315490B2, “2,5-substituted pyrimidines” (Grünenthal GmbH, priority 2014, dated 2016).

Each compound was assayed against T1, human PDE4B1 (Homo sapiens, UniProt Q07343) (assay: TR-FRET assay using the LANCE Ultra cAMP kit to determine the activity of hPDE4B1). Conditions: test concentration 1 μM, read-out: Inhibition in % (inhibition of PDE4B).
T1 construct: host or cells: Sf9 cells
T1 sequence (Q07343 whole entry): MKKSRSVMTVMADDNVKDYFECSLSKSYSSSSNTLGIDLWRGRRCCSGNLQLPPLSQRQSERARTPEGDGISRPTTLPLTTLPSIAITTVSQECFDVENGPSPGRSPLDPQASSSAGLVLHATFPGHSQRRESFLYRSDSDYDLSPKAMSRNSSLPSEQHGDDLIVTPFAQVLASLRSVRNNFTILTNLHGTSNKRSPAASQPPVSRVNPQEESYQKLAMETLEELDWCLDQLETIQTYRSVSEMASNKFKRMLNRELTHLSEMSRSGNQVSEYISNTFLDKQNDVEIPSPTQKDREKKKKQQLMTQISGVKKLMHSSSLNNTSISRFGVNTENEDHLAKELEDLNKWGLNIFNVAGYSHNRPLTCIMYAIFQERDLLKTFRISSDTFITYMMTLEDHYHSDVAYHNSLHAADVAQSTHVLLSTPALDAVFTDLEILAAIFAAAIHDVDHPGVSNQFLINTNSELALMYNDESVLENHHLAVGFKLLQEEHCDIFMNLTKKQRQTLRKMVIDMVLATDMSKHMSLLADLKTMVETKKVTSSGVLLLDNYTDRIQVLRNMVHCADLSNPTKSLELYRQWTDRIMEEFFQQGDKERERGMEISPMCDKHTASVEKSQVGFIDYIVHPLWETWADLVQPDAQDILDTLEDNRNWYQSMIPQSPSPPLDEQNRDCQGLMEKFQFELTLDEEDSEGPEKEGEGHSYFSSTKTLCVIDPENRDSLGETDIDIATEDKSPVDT
Type: biochemical
Text: TR-FRET Assay Using the LANCE® Ultra cAMP Kit to Determine the Activity of hPDE4B1
The effects of the compounds on the activity of the human PDE4B1 was quantified by measuring the production of 5′AMP from cAMP using a human recombinant enzyme expressed in Sf9 cells and the LANCE® Ultra cAMP kit, a TR-FRET detection method from PerkinElmer. The human PDE4B1 enzyme was purchased from SignalChem Lifesciences (Catalog# P92-31BG, Lot# H296-2).
The test compound, reference compound or water (control) was mixed with the enzyme (0.96 U) in a reaction buffer containing 50 mM Tris-HCl, 50 mM MgCl2 and 5 mM DTT (pH 8.5). Thereafter, the reaction was initiated by addition of 500 nM cAMP (substrate) and the mixture was incubated for 30 minutes at room temperature. For control basal measurements, the enzyme was omitted from the reaction mixture. After 30 minutes, the reaction was stopped and diluted by a factor of 100 with the reaction buffer supplemented with 500 μM IBMX. The fluorescence donor (europium chelate-labeled cAMP) and the fluorescence acceptor (anti-cAMP antibody labeled with the ULight™ dye) were then added together with 500 μM IBMX to a 10 μl aliquot. After 60 minutes, the fluorescence transfer corresponding to the amount of residual cAMP was measured at λex=337 nm, λem=620 nm and λem=665 nm using a microplate reader (PHERAstar, BMG). The enzyme activity was determined by dividing the signal measured at 665 nm by that measured at 620 nm (ratio) multiplied by 10000. The results were expressed as percent inhibition of the control enzyme activity. IC50 values (IC50=concentration causing a half-maximal inhibition of control specific activity) were derived from dose response measurements with ten different concentrations (n=3; N=1-3).
`CSc1cn(-c2ncc(-c3ccccc3F)cn2)c2cc(C(=O)N3CCOCC3)ccc12` [Example 1d, (1-(5-(2-Fluorophenyl)pyrimidin-2-yl)-3-(methylthio)-1H-indol-6-yl)(morpholino)methanone] showed an inhibition at 1 µM of 89%.
For `C[S+]([O-])c1cn(-c2ncc(-c3ccccc3F)cn2)c2cc(C(=O)N3CC4CNCC4C3)ccc12` (stereo not shown) [Example 222, (1-(5-(2-Fluorophenyl)pyrimidin-2-yl)-3-(methylsulfinyl)-1H-indol-6-yl)(hexahydropyrrolo[3,4-c]pyrrol-2(1H)-yl)methanone], the inhibition at 1 µM was 73%.
Work on `Cc1ccnc(-c2cnc(-n3cc([S+](C)[O-])c4ccc(C(=O)N5C[C@@H]6C[C@H]5CN6)cc43)nc2)c1` (stereo partly drawn) [Example 245, (1S,4S)-2,5-Diazabicyclo[2.2.1]heptan-2-yl(1-(5-(4-methylpyridin-2-yl)pyrimidin-2-yl)-3-(methylsulfinyl)-1H-indol-6-yl)methanone] yielded an inhibition at 1 µM of 86%.
For `CCc1ccnc(-c2cnc(-n3cc([S+](C)[O-])c4ccc(C(=O)N5C[C@@H]6C[C@H]5CN6)cc43)nc2)c1` (stereo partly drawn) [Example 246, (1S,4S)-2,5-Diazabicyclo[2.2.1]heptan-2-yl(1-(5-(4-ethylpyridin-2-yl)pyrimidin-2-yl)-3-(methylsulfinyl)-1H-indol-6-yl)methanone], the inhibition at 1 µM was 96%.
`Cc1cccc(-c2cnc(-n3cc([S+](C)[O-])c4ccc(C(=O)N5C[C@@H]6C[C@H]5CN6)cc43)nc2)n1` (stereo partly drawn) [Example 247, (1S,4S)-2,5-Diazabicyclo[2.2.1]heptan-2-yl(1-(5-(6-methylpyridin-2-yl)pyrimidin-2-yl)-3-(methylsulfinyl)-1H-indol-6-yl)methanone] showed an inhibition at 1 µM of 90%.
`CN(C)c1ccnc(-c2cnc(-n3cc([S+](C)[O-])c4ccc(C(=O)N5C[C@@H]6C[C@H]5CN6)cc43)nc2)c1` (stereo partly drawn) [Example 248, (1S,4S)-2,5-Diazabicyclo[2.2.1]heptan-2-yl(1-(5-(4-(dimethylamino)pyridin-2-yl)pyrimidin-2-yl)-3-(methylsulfinyl)-1H-indol-6-yl)methanone] gave an inhibition at 1 µM of 97%.
For `Cc1ccc(F)c(-c2cnc(-n3cc([S+](C)[O-])c4ccc(C(=O)N5C[C@@H]6C[C@H]5CN6)cc43)nc2)c1` (stereo partly drawn) [Example 249, (1S,4S)-2,5-Diazabicyclo[2.2.1]heptan-2-yl(1-(5-(2-fluoro-5-methylphenyl)pyrimidin-2-yl)-3-(methylsulfinyl)-1H-indol-6-yl)methanone], the inhibition at 1 µM was 93%.
In the case of `CC(C)c1ccnc(-c2cnc(-n3cc([S+](C)[O-])c4ccc(C(=O)N5CCOCC5)cc43)nc2)c1` (stereo not shown) [Example 256, (1-(5-(4-Isopropylpyridin-2-yl)pyrimidin-2-yl)-3-(methylsulfinyl)-1H-indol-6-yl)(morpholino)methanone], the inhibition at 1 µM is reported as 96%.
In the case of `CC#Cc1ccnc(-c2cnc(-n3cc([S+](C)[O-])c4ccc(C(=O)N5CCOCC5)cc43)nc2)c1` (stereo not shown) [Example 257, (3-(Methylsulfinyl)-1-(5-(4-(prop-1-yn-1-yl)pyridin-2-yl)pyrimidin-2-yl)-1H-indol-6-yl)(morpholino)methanone], the inhibition at 1 µM is reported as 93%.
For `C[S+]([O-])c1cn(-c2ncc(-c3cc(C4CC4)ccn3)cn2)c2cc(C(=O)N3CCOCC3)ccc12` (stereo not shown) [Example 258, (1-(5-(4-Cyclopropylpyridin-2-yl)pyrimidin-2-yl)-3-(methylsulfinyl)-1H-indol-6-yl)(morpholino)methanone], the inhibition at 1 µM was 92%.
`CCc1ccnc(-c2cnc(-n3cc([S+](C)[O-])c4ccc(C(=O)N5CCOCC5)cc43)nc2)c1` (stereo not shown) [Example 259] gave an inhibition at 1 µM of 95%.
Work on `CCOc1ccnc(-c2cnc(-n3cc([S+](C)[O-])c4ccc(C(=O)N5CCOCC5)cc43)nc2)c1` (stereo not shown) [Example 260, (1-(5-(4-Ethoxypyridin-2-yl)pyrimidin-2-yl)-3-(methylsulfinyl)-1H-indol-6-yl)(morpholino)methanone] yielded an inhibition at 1 µM of 95%.
Compound `CCOc1ccc(F)c(-c2cnc(-n3cc([S+](C)[O-])c4ccc(C(=O)N5CCOCC5)cc43)nc2)c1` (stereo not shown) [Example 261, (1-(5-(5-Ethoxy-2-fluorophenyl)pyrimidin-2-yl)-3-(methylsulfinyl)-1H-indol-6-yl)(morpholino)methanone] has an inhibition at 1 µM of 55%.
Compound `C[S+]([O-])c1cn(-c2ncc(-c3ccc4c(c3)OCO4)cn2)c2cc(C(=O)N3CCOCC3)ccc12` (stereo not shown) [Example 262, (1-(5-(Benzo[d][1,3]dioxol-5-yl)pyrimidin-2-yl)-3-(methylsulfinyl)-1H-indol-6-yl)(morpholino)methanone] has an inhibition at 1 µM of 70%.
For `C[S+]([O-])c1cn(-c2ncc(-c3cc(OC(F)(F)F)ccc3F)cn2)c2cc(C(=O)N3CCOCC3)ccc12` (stereo not shown) [Example 263, (1-(5-(2-Fluoro-5-(trifluoromethoxy)phenyl)pyrimidin-2-yl)-3-(methylsulfinyl)-1H-indol-6-yl)(morpholino)methanone], the inhibition at 1 µM was 97%.
`CC(=O)Oc1ccc(F)c(-c2cnc(-n3cc([S+](C)[O-])c4ccc(C(=O)N5CCOCC5)cc43)nc2)c1` (stereo not shown) [Example 264, 4-Fluoro-3-(2-(3-(methylsulfinyl)-6-(morpholine-4-carbonyl)-1H-indol-1-yl)pyrimidin-5-yl)phenyl acetate] was tested, and the inhibition at 1 µM was 94%.
Work on `Cc1ccc(F)c(-c2cnc(-n3cc([S+](C)[O-])c4ccc(C(=O)N5CCCC5)cc43)nc2)c1` (stereo not shown) [Example 265, (1-(5-(2-Fluoro-5-methylphenyl)pyrimidin-2-yl)-3-(methylsulfinyl)-1H-indol-6-yl)(pyrrolidin-1-yl)methanone] yielded an inhibition at 1 µM of 98%.
With `CCN(C)C(=O)c1ccc2c([S+](C)[O-])cn(-c3ncc(-c4cc(C)ccc4F)cn3)c2c1` (stereo not shown) [Example 266, N-Ethyl-1-(5-(2-fluoro-5-methylphenyl)pyrimidin-2-yl)-N-methyl-3-(methylsulfinyl)-1H-indole-6-carboxamide] the inhibition at 1 µM was 98%.
For `Cc1ccc(F)c(-c2cnc(-n3cc([S+](C)[O-])c4ccc(C(=O)N(C)C)cc43)nc2)c1` (stereo not shown) [Example 267, 1-(5-(2-Fluoro-5-methylphenyl)pyrimidin-2-yl)-N,N-dimethyl-3-(methylsulfinyl)-1H-indole-6-carboxamide], the inhibition at 1 µM was 94%.
With `COc1ccc(F)c(-c2cnc(-n3cc([S+](C)[O-])c4ccc(C(=O)N(C)C)cc43)nc2)c1` (stereo not shown) [Example 268, 1-(5-(2-Fluoro-5-methoxyphenyl)pyrimidin-2-yl)-N,N-dimethyl-3-(methylsulfinyl)-1H-indole-6-carboxamide] the inhibition at 1 µM was 95%.
Compound `Cc1ccnc(-c2cnc(-n3cc([S+](C)[O-])c4ccc(C(=O)N5CCCC5)cc43)nc2)c1` (stereo not shown) [Example 269, (1-(5-(4-Methylpyridin-2-yl)pyrimidin-2-yl)-3-(methylsulfinyl)-1H-indol-6-yl)(pyrrolidin-1-yl)methanone] has an inhibition at 1 µM of 97%.
`Cc1ccnc(-c2cnc(-n3cc([S+](C)[O-])c4ccc(C(=O)N(C)C)cc43)nc2)c1` (stereo not shown) [Example 270, N,N-Dimethyl-1-(5-(4-methylpyridin-2-yl)pyrimidin-2-yl)-3-(methylsulfinyl)-1H-indole-6-carboxamide] showed an inhibition at 1 µM of 102%.
`CCN(C)C(=O)c1ccc2c([S+](C)[O-])cn(-c3ncc(-c4cc(C)ccn4)cn3)c2c1` (stereo not shown) [Example 271, N-Ethyl-N-methyl-1-(5-(4-methylpyridin-2-yl)pyrimidin-2-yl)-3-(methylsulfinyl)-1H-indole-6-carboxamide] gave an inhibition at 1 µM of 97%.
Work on `CN(C)C(=O)c1ccc2c([S+](C)[O-])cn(-c3ncc(-c4cc(N(C)C)ccn4)cn3)c2c1` (stereo not shown) [Example 272, 1-(5-(4-(Dimethylamino)pyridin-2-yl)pyrimidin-2-yl)-N,N-dimethyl-3-(methylsulfinyl)-1H-indole-6-carboxamide] yielded an inhibition at 1 µM of 93%.
With `CN(C)C(=O)c1ccc2c([S+](C)[O-])cn(-c3ncc(-c4cc(N)ccn4)cn3)c2c1` (stereo not shown) [Example 273, 1-(5-(4-Aminopyridin-2-yl)pyrimidin-2-yl)-N,N-dimethyl-3-(methylsulfinyl)-1H-indole-6-carboxamide] the inhibition at 1 µM was 91%.
With `CCc1ccc(F)c(-c2cnc(-n3cc([S+](C)[O-])c4ccc(C(=O)N(C)C)cc43)nc2)c1` (stereo not shown) [Example 274, 1-(5-(5-Ethyl-2-fluorophenyl)pyrimidin-2-yl)-N,N-dimethyl-3-(methylsulfinyl)-1H-indole-6-carboxamide] the inhibition at 1 µM was 104%.
`CCc1ccc(F)c(-c2cnc(-n3cc([S+](C)[O-])c4ccc(C(=O)N5CCCC5)cc43)nc2)c1` (stereo not shown) [Example 275, (1-(5-(5-Ethyl-2-fluorophenyl)pyrimidin-2-yl)-3-(methylsulfinyl)-1H-indol-6-yl)(pyrrolidin-1-yl)methanone] gave an inhibition at 1 µM of 113%.
Work on `CCc1ccc(F)c(-c2cnc(-n3cc([S+](C)[O-])c4ccc(C(=O)N5CCOCC5)cc43)nc2)c1` (stereo not shown) [Example 276, (1-(5-(5-Ethyl-2-fluorophenyl)pyrimidin-2-yl)-3-(methylsulfinyl)-1H-indol-6-yl)(morpholino)methanone] yielded an inhibition at 1 µM of 106%.
